Converted amounts (≈) assume the structure as drawn. The source made the active and inactive calls. No cut-off for these calls is given here.
Tests used:
Staphylococcus aureus [1] = test: Antibacterial activity against Staphylococcus aureus UC-96 by gradient plate test; assay type: functional
Plasmodium berghei [2] = test: Antimalarial activity against Plasmodium berghei infected in mouse assessed as increase in mean survival days of host at 80 mg/kg, sc administered 72 hrs after infection relative to control; assay type: functional; settings: route subcutaneous
Gallus gallus [3] = test: Toxicity in sporozoite-induced Plasmodium gallinaceum infected white leghorn chicken assessed as mortality at 30 mg/kg, sc administered 72 hrs after infection measured up to 6 days; assay type: organism-based; set-up: dose 30 mg/kg, route subcutaneous; settings: in vivo
Escherichia coli = test: Antibacterial activity against Escherichia coli Vogel by gradient plate test; assay type: functional
Plasmodium gallinaceum [4] = test: Antimalarial activity against sporozoite-induced Plasmodium gallinaceum infected in white leghorn chicken assessed as disease cure from parasite infection at 120 mg/kg, sc administered 72 hrs after infection; assay type: functional, organism-based; set-up: dose 120 mg/kg
Plasmodium berghei [5] = test: Antimalarial activity against Plasmodium berghei infected in mouse assessed as disease cure from parasite infection at 160 mg/kg, sc administered 72 hrs after infection; assay type: functional, organism-based; set-up: dose 160 mg/kg
Plasmodium berghei [6] = test: Antimalarial activity against Plasmodium berghei infected in mouse assessed as disease cure from parasite infection at 320 mg/kg, sc administered 72 hrs after infection; assay type: functional, organism-based; set-up: dose 320 mg/kg
Plasmodium berghei [7] = test: Antimalarial activity against Plasmodium berghei infected in mouse assessed as increase in mean survival days of host at 10 mg/kg, sc administered 72 hrs after infection relative to control; assay type: functional; settings: route subcutaneous
Plasmodium gallinaceum [8] = test: Antimalarial activity against sporozoite-induced Plasmodium gallinaceum infected in white leghorn chicken assessed as disease cure from parasite infection at 30 mg/kg, sc administered 72 hrs after infection; assay type: functional, organism-based; set-up: dose 30 mg/kg
Gallus gallus [9] = test: Toxicity in sporozoite-induced Plasmodium gallinaceum infected white leghorn chicken assessed as mortality at 480 mg/kg, sc administered 72 hrs after infection measured up to 6 days; assay type: organism-based; set-up: dose 480 mg/kg, route subcutaneous; settings: in vivo
[10] = system: Mycobacterium tuberculosis; test: Antibacterial activity against Mycobacterium tuberculosis H37Ra by gradient plate test; assay type: functional
Plasmodium berghei [11] = test: Antimalarial activity against Plasmodium berghei infected in mouse assessed as increase in mean survival days of host at 20 mg/kg, sc administered 72 hrs after infection relative to control; assay type: functional; settings: route subcutaneous
Plasmodium gallinaceum [12] = test: Antimalarial activity against sporozoite-induced Plasmodium gallinaceum infected in white leghorn chicken assessed as disease cure from parasite infection at 240 mg/kg, sc administered 72 hrs after infection; assay type: functional, organism-based; set-up: dose 240 mg/kg
Gallus gallus [13] = test: Toxicity in sporozoite-induced Plasmodium gallinaceum infected white leghorn chicken assessed as mortality at 15 mg/kg, sc administered 72 hrs after infection measured up to 6 days; assay type: organism-based; set-up: dose 15 mg/kg, route subcutaneous; settings: in vivo
Shigella sonnei = test: Antibacterial activity against Shigella sonnei C-10 by gradient plate test; assay type: functional
Enterococcus faecalis = test: Antibacterial activity against Streptococcus faecalis MGH-2 by gradient plate test; assay type: functional
Plasmodium berghei [14] = test: Antimalarial activity against Plasmodium berghei infected in mouse assessed as increase in mean survival days of host at 40 mg/kg, sc administered 72 hrs after infection relative to control; assay type: functional; settings: route subcutaneous
Plasmodium gallinaceum [15] = test: Antimalarial activity against sporozoite-induced Plasmodium gallinaceum infected in white leghorn chicken assessed as disease cure from parasite infection at 15 mg/kg, sc administered 72 hrs after infection; assay type: functional, organism-based; set-up: dose 15 mg/kg
Plasmodium gallinaceum [16] = test: Antimalarial activity against sporozoite-induced Plasmodium gallinaceum infected in white leghorn chicken assessed as disease cure from parasite infection at 60 mg/kg, sc administered 72 hrs after infection; assay type: functional, organism-based; set-up: dose 60 mg/kg
Plasmodium gallinaceum [17] = test: Antimalarial activity against sporozoite-induced Plasmodium gallinaceum infected in white leghorn chicken assessed as disease cure from parasite infection at 480 mg/kg, sc administered 72 hrs after infection; assay type: functional, organism-based; set-up: dose 480 mg/kg
Plasmodium berghei [18] = test: Antimalarial activity against Plasmodium berghei infected in mouse assessed as disease cure from parasite infection at 80 mg/kg, sc administered 72 hrs after infection; assay type: functional, organism-based; set-up: dose 80 mg/kg
Gallus gallus [19] = test: Toxicity in sporozoite-induced Plasmodium gallinaceum infected white leghorn chicken assessed as mortality at 240 mg/kg, sc administered 72 hrs after infection measured up to 6 days; assay type: organism-based; set-up: dose 240 mg/kg, route subcutaneous; settings: in vivo
Staphylococcus aureus [20] = test: Antibacterial activity against drug-resistant Staphylococcus aureus S18713 by gradient plate test; assay type: functional
Gallus gallus [21] = test: Toxicity in sporozoite-induced Plasmodium gallinaceum infected white leghorn chicken assessed as mortality at 120 mg/kg, sc administered 72 hrs after infection measured up to 6 days; assay type: organism-based; set-up: dose 120 mg/kg, route subcutaneous; settings: in vivo
Gallus gallus [22] = test: Toxicity in sporozoite-induced Plasmodium gallinaceum infected white leghorn chicken assessed as mortality at 60 mg/kg, sc administered 72 hrs after infection measured up to 6 days; assay type: organism-based; set-up: dose 60 mg/kg, route subcutaneous; settings: in vivo
Pseudomonas aeruginosa = test: Antibacterial activity against Pseudomonas aeruginosa 28 by gradient plate test; assay type: functional
Plasmodium berghei [23] = test: Antimalarial activity against Plasmodium berghei infected in mouse assessed as disease cure from parasite infection at 640 mg/kg, sc administered 72 hrs after infection; assay type: functional, organism-based; set-up: dose 640 mg/kg
Plasmodium berghei [24] = test: Ratio of quinine hydrochloride SD90 to compound SD90 for trophozoite-induced Plasmodium berghei infected in mouse assessed as daily dose required to suppression of 90% parasite infection administered with diet for 6 days; assay type: functional
Plasmodium gallinaceum [25] = test: Antimalarial activity against sporozoite-induced Plasmodium gallinaceum infected in white leghorn chicken assessed as increase in mean survival days of host at 60 mg/kg, sc administered 72 hrs after infection relative to control; assay type: functional; settings: route subcutaneous
Plasmodium gallinaceum [26] = test: Antimalarial activity against sporozoite-induced Plasmodium gallinaceum infected in white leghorn chicken assessed as increase in mean survival days of host at 30 mg/kg, sc administered 72 hrs after infection relative to control; assay type: functional; settings: route subcutaneous
Plasmodium gallinaceum [27] = test: Antimalarial activity against sporozoite-induced Plasmodium gallinaceum infected in white leghorn chicken assessed as increase in mean survival days of host at 240 mg/kg, sc administered 72 hrs after infection relative to control; assay type: functional; settings: route subcutaneous
Plasmodium berghei [28] = test: Antimalarial activity against Plasmodium berghei infected in mouse assessed as increase in mean survival days of host at 160 mg/kg, sc administered 72 hrs after infection relative to control; assay type: functional; settings: route subcutaneous
Plasmodium berghei [29] = test: Antimalarial activity against trophozoite-induced Plasmodium berghei infected in mouse assessed as daily dose required to suppression of 90% parasite infection administered with diet for 6 days; assay type: functional
Plasmodium gallinaceum [30] = test: Antimalarial activity against sporozoite-induced Plasmodium gallinaceum infected in white leghorn chicken assessed as increase in mean survival days of host at 15 mg/kg, sc administered 72 hrs after infection relative to control; assay type: functional; settings: route subcutaneous
Plasmodium gallinaceum [31] = test: Antimalarial activity against sporozoite-induced Plasmodium gallinaceum infected in white leghorn chicken assessed as increase in mean survival days of host at 120 mg/kg, sc administered 72 hrs after infection relative to control; assay type: functional; settings: route subcutaneous
Plasmodium gallinaceum [32] = test: Antimalarial activity against sporozoite-induced Plasmodium gallinaceum infected in white leghorn chicken assessed as increase in mean survival days of host at 7.5 mg/kg, sc administered 72 hrs after infection relative to control; assay type: functional; settings: route subcutaneous

Cc1cc(Sc2ccc3nc(N)nc(N)c3c2)ccc1Br
MIC (Staphylococcus aureus [1]): 5 µg/mL (≈ 13.8 µM)
MST (Plasmodium berghei [2]): 11.9 days
Activity (Gallus gallus [3]): Toxic
MIC (Escherichia coli): 20 µg/mL (≈ 55.4 µM)
Activity (Plasmodium gallinaceum [4]): Active
Activity (Plasmodium berghei [5]): Active
Activity (Plasmodium berghei [6]): Active
MST (Plasmodium berghei [7]): 1.9 days
Activity (Plasmodium gallinaceum [8]): Active
Activity (Gallus gallus [9]): Toxic
MIC [10]: > 25 µg/mL
MST (Plasmodium berghei [11]): 3.5 days
Activity (Plasmodium gallinaceum [12]): Active
Activity (Gallus gallus [13]): Toxic
MIC (Shigella sonnei): 20 µg/mL (≈ 55.4 µM)
MIC (Enterococcus faecalis): 10 µg/mL (≈ 27.7 µM)
MST (Plasmodium berghei [14]): 7.7 days
Activity (Plasmodium gallinaceum [15]): Active
Activity (Plasmodium gallinaceum [16]): Active
Activity (Plasmodium gallinaceum [17]): Active
Activity (Plasmodium berghei [18]): Active
Activity (Gallus gallus [19]): Toxic
MIC (Staphylococcus aureus [20]): 10 µg/mL (≈ 27.7 µM)
Activity (Gallus gallus [21]): Toxic
Activity (Gallus gallus [22]): Toxic
MIC (Pseudomonas aeruginosa): > 25 µg/mL
Activity (Plasmodium berghei [23]): Active

CC(=O)O.Nc1nc(N)c2cc(NCc3ccc(Cl)c(Cl)c3)ccc2n1
Ratio (Plasmodium berghei [24]): 7.9
MST (Plasmodium berghei [2]): 12.9 days
MST (Plasmodium gallinaceum [25]): 0 days
MST (Plasmodium berghei [7]): 0.7 days
MST (Plasmodium gallinaceum [26]): 0 days
Activity (Gallus gallus [9]): Toxic
MST (Plasmodium berghei [11]): 2.5 days
MST (Plasmodium gallinaceum [27]): 0 days
MST (Plasmodium berghei [28]): 9.9 days
SD90 (Plasmodium berghei [29]): 9.5 mg/kg/day
MST (Plasmodium gallinaceum [30]): 3.1 days
MST (Plasmodium gallinaceum [31]): 0 days
MST (Plasmodium berghei [14]): 7.1 days
MST (Plasmodium gallinaceum [32]): 2.3 days

From ChEMBL document CHEMBL3272271, “Folate antagonists. 13. 2,4-Diamino-6-](alpha,alpha,alpha-trifluoro-m-tolyl)thio]quinazoline and related 2,4-diamino-6-[(phenyl- and naphthyl)thio]quinazolines, a unique class of antimetabolites with extraordinary antimalarial and antibacterial effects” (J Med Chem, 1978)
